Columns and labels:
BCA = target: T1, BCA (Bos taurus, UniProt P00921); assay: Effect of DNSA present in the denaturing solution on rate of SDS denaturation; parameters: species or system bovine; conditions: DNSA present with the protein in the denaturing SDS solution
T1 construct: purchased Sigma-Aldrich (St. Louis, Mo.)
Protocol: The kinetics of unfolding were determined as follows. The rates of denaturation of BCA and BCA-Ac18 were measured by incubating the protein (200 nM) in solutions of different concentrations of SDS. Immediately prior to the measurement, an aliquot of solution containing protein and SDS was mixed with a solution containing DNSA and the same concentration of SDS; this protocol minimized the possibility that DNSA might stabilize the native conformation of the protein, and influence the rate of its denaturation. When BCA was denatured in concentrations of SDS of 4 mM and higher, DNSA was added to the original, denaturing solution because the rate of denaturation was too fast to follow with manual mixing of aliquots of protein and DNSA. It was observed that DNSA, when present with the protein in the denaturing solution, reduced the rates of denaturation by factors of about 2-10.

Surface area calculation = assay: Surface area calculation
Protocol: A surface area calculation was also performed to determine the change in surface area between the conversion of BCA to BCA-Ac18 and BCA to BCA-Hex18. It was calculated that the reaction with acetic anhydride changed the surface area of BCA by 400 Å^2 and the reaction with hexanoic anhydride changed the surface area of BCA by 1180 Å^2. Since this change is a factor of 2.9, it can be concluded that this estimate that each modification with hexanoic anhydride adds three times the amount of surface area than modification with acetic anhydride is justified.

T1 sequence (P00921 whole entry): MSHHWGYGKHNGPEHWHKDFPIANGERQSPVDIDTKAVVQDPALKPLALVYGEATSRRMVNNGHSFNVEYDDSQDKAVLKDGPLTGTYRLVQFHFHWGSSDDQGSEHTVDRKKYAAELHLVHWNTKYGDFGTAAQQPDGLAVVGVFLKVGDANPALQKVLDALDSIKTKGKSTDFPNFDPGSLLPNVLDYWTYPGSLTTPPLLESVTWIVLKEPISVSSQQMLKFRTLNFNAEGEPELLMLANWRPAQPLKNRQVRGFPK

Compound	factor by which rates of denaturation are reduced (BCA)	ratio of surface area change, hexanoic vs acetic anhydride (Surface area calculation)
CN(C)c1cccc2c(S(N)(=O)=O)cccc12 [DNSA, Dansyl amide]	2-10	
BCA-Hex18: BCA with all 18 lysines modified with hexanoic anhydride		2.9

Reference: patent US20080113421A1, “Stabilizing proteins against denaturation and inactivation by charged detergents using chemical modifications, including modifications that increase net charge” (President and Fellows of Harvard College, priority 2006, published 2008)
